Measured values: PubChem BioAssay AID1959 (Broad Institute, 2009)
Activity calls are given as the source filed them.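 Rule for the calls: active = growth-inhibition EC50 no more than tenfold above the top tested dose; inconclusive = flat fit between 30% and 70% inhibition, or unreliable fit; inactive = EC50 more than tenfold above the top tested dose.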

System: E. coli NEB5alpha growth, BacTiter-Glo luminescence, 4 h
Test: Escherichia coli growth inhibition, dose response, counter-screen for MEX-5/POS-1 RNA-binding inhibitor project, luminescence, NEB5alpha (AID 1959);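 note: pUC19-transformed ampicillin-resistant cells grown in LB with ampicillin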

SMILES	EC50
COc1cccc(NS(=O)(=O)c2ccc3c(c2)C2C=CCC2C(c2ccc(C(=O)O)cc2)N3)c1 (centres undefined)	> 11 µM (inactive)
Cc1ccccc1-c1ccc(/C=C2/SC(N3CCOCC3)=NC2=O)o1	> 11 µM (inactive)
CCCNc1c(F)c(F)c2c(C)c3ccccc3nc2c1F	> 11 µM (inactive)
COc1ccc(C2C(C#N)=C(N)OC3=C2C(=O)CCC3)c(OC)c1OC (centres undefined)	> 11 µM (inactive)
CCn1c(SCc2ccc(C)cc2)nnc1C1CCN(S(=O)(=O)c2ccc(OC)cc2)CC1	> 11 µM (inactive)
CCN(CC)CCN(Cc1cc2ccc(C)c(C)c2[nH]c1=O)C(=S)NCc1ccco1	> 11 µM (inactive)
Cc1cc(CC(C)C)n(-c2nc3ccccc3c(=O)n2OCc2ccccc2)n1	> 11 µM (inactive)
COc1cc(/C=N\Nc2ccc([N+](=O)[O-])cc2)ccc1OCC(=O)Nc1ccc(C)c(C)c1	> 11 µM (inactive)
CN1C(=O)C(=Cc2ccc(N3CCCCC3)o2)C(=O)N(C)C1=S	> 11 µM (inactive)
CN1CCC2(CC1)C(C#N)=C(N)NC(S)=C2C#N	> 11 µM (inactive)
O=C1CNC(=S)N1CCc1ccc(O)c(O)c1	> 11 µM (inactive)
CC(=O)N1CCN(c2ccc(N=Cc3c(O)n(Cc4ccccc4)c(=O)[nH]c3=O)cc2)CC1	> 11 µM (inactive)
Cc1cc(C(F)(F)F)c2c(N)c(C(=O)Nc3cc(C)on3)sc2n1	> 11 µM (inactive)
COc1cccc(F)c1C(=O)NC(=O)Nc1ccc2nc(C)oc2c1	> 11 µM (inactive)
COc1cc(OC)c(OC)cc1/C=C1\Oc2cc(OS(C)(=O)=O)ccc2C1=O	> 11 µM (inactive)
CCN1CCc2c(sc(NC(=O)c3ccc4ccccc4c3)c2C(N)=O)C1	> 11 µM (inactive)
O=C(/C=C/c1ccc([N+](=O)[O-])s1)N1CCCC1	> 11 µM (inactive)
CC(C)(C)C(=O)c1sc2nc(-c3cccs3)cc(C(F)(F)F)c2c1N	> 11 µM (inactive)
O=C(N/N=C/c1c(O)n(Cc2ccc(F)cc2)c(=O)[nH]c1=O)c1ccccc1O	> 11 µM (inactive)
CN1/C(=C/C=C(C#N)C#N)C(C)(C)c2ccccc21	> 11 µM (inactive)
Cc1ccc(Cn2c(=N)c(C(=O)NCC3CCCO3)cc3c(=O)n4ccccc4nc32)cc1 (centres undefined)	> 11 µM (inactive)
COc1ccc(/C=C(\C#N)C(=O)NCC2CCCO2)cc1OC (centres undefined)	> 11 µM (inactive)
COC(=O)c1cc(C(=O)OC)cc(-n2c(C)cc(C(=O)CC#N)c2C)c1	> 11 µM (inactive)

SMILES	EC50
COc1cc([C@H](Cc2ccccc2)NC(C)=O)oc(=O)c1	> 11 µM (inactive)
CCCN1CCc2cccc3c2[C@H]1Cc1ccc(O)c(O)c1-3	> 11 µM (inactive)
Cc1c2ccccc2nc2c(F)c(NC(C)C)c(F)c(F)c12	> 11 µM (inactive)
CC1(C)CC(=O)C2=C(C1)OC(/N=C/N1CCCC1)=C(C#N)C2c1ccccc1 (centres undefined)	> 11 µM (inactive)
Cc1ccc(N2C(=O)c3cccc4c(N5CCN(C)CC5)ccc(c34)C2=O)c2cccnc12	> 11 µM (inactive)
COc1ccc(N2C(=O)NC(=O)/C(=C/c3ccc4c(c3)Cc3ccccc3-4)C2=O)cc1	> 11 µM (inactive)
Cc1cccc(NC(=O)c2sc3nc(-c4ccccc4)cn3c2C)n1	> 11 µM (inactive)
O=C(N/N=C\C1C(=O)NC(=S)N(c2ccccc2)C1=O)c1ccc(O)cc1 (centres undefined)	> 11 µM (inactive)
CN1C(=O)/C(=C/C=C/c2ccco2)C(=O)NC1=S	> 11 µM (inactive)
CN1CCN(C2=C(Cl)C(=O)C(c3cnc(N4CCCCC4)s3)=C(Cl)C2=O)CC1	> 11 µM (inactive)
O=C(O)CSc1cc(NS(=O)(=O)c2ccc(Cl)cc2)c2ccccc2c1O	> 11 µM (inactive)
NC(=O)c1c(NC(=O)c2ccccc2)sc2c1CCN(Cc1ccccc1)C2	> 11 µM (inactive)
CCNc1nn2ccccc2c1/C=C(\C#N)C(=O)OCC	> 11 µM (inactive)
CN(C)c1ccc(/C=C/c2nc3ccccc3s2)cc1	> 11 µM (inactive)
O=C1/C(=C/c2ccc(O)c(O)c2)SC(=S)N1Nc1ccccc1	> 11 µM (inactive)
CN1C(=O)/C(=C\c2ccc(N(C)C)cc2)OC1=S	> 11 µM (inactive)
CCC(NC(C)C)C(O)c1ccc(O)c(O)c1 (centres undefined)	> 11 µM (inactive)
O=C(NCCN1CCOCC1)c1cccn2c(=O)c3c4c(sc3nc12)CCCC4	> 11 µM (inactive)
N#CC(c1nc2ccccc2nc1OCCO)S(=O)(=O)c1ccccc1 (centres undefined)	> 11 µM (inactive)
COc1ccc(NC(=O)NS(=O)(=O)c2ccc(C)cc2)cn1	> 11 µM (inactive)
CCN(CC)CCN=Cc1c(O)n(CCc2ccccc2)c(=O)[nH]c1=O	> 11 µM (inactive)
CC1=Nc2ccccc2/C1=C\c1nc(-c2ccc(F)cc2)oc1O	> 11 µM (inactive)
CCCCn1c(=O)[nH]c(=O)c2c1nc(-c1ccc(-c3ccccc3Br)o1)n2CCOC	> 11 µM (inactive)

SMILES	EC50
N=c1c(S(=O)(=O)c2ccc(Br)cc2)cc2c(=O)n3ccccc3nc2n1C1CCCCC1	> 11 µM (inactive)
COc1ccc(-n2nc(C(=O)c3cccs3)cc(-c3nc4ccccc4[nH]3)c2=N)cc1	> 11 µM (inactive)
CC1(CCl)N([O-])C2=C(CCCC2)[N+]1=O (centres undefined)	> 11 µM (inactive)
Cc1cc(O)c(CN(C)C)c2c1C(=O)/C(=C/c1ccco1)O2	> 11 µM (inactive)
NS(=O)(=O)c1ccc(NC(=O)COC(=O)c2cn(-c3ccccc3)nc2-c2ccc(F)cc2)cc1	> 11 µM (inactive)
COc1ccc(/C=C/C(=O)c2c(C)cc(C)[nH]c2=O)c2ccccc12	> 11 µM (inactive)
COc1cccc(/C=N/NC(=O)c2ccc(=O)[nH]n2)c1O	> 11 µM (inactive)
Nc1c(O)ccc2c1C(=O)c1ccccc1C2=O	> 11 µM (inactive)
O=c1[nH]c2ccccc2nc1/C=C/c1ccc(F)cc1	> 11 µM (inactive)
CCCCC1=CC2=CC(=O)C(C)(O)C(=O)C2=CO1 (centres undefined)	> 11 µM (inactive)
CCN(CC)C(=O)c1ccc2c(c1)C1C(Cl)C(Sc3ccccc3[N+](=O)[O-])CC1C(C(=O)O)N2 (centres undefined)	> 11 µM (inactive)
Cc1cc(O)c(Oc2cc(C)cc(O)c2O)c(O)c1	> 11 µM (inactive)
O=C(O)C(=O)/C(=C\c1cccc2ccccc12)c1ccc2ccccc2n1	> 11 µM (inactive)
Cc1c(C(=O)O)cccc1-n1c(C)cc(C=O)c1C	> 11 µM (inactive)
CN1C(=O)/C(=C\c2ccc(N3CCCCC3)o2)C(=O)NC1=S	> 11 µM (inactive)
CCOC(=O)C1CCN(C(=O)c2ccc3c(c2)NC(=O)/C(=C\c2ccc(C)cc2)S3)CC1	> 11 µM (inactive)
COc1cccc(C2C(C#N)=C(N)OC3=C2C(=O)CCC3)c1OC(=O)c1ccco1 (centres undefined)	> 11 µM (inactive)
NS(=O)(=O)c1ccc(Nc2nc(-c3ccc(O)cc3O)cs2)cc1	> 11 µM (inactive)
CN=C1S/C(=C\c2ccc(O)c(OC)c2)C(=O)N1C	> 11 µM (inactive)
O=C(N/N=C/c1ccc(-c2ccc([N+](=O)[O-])cc2)o1)c1cccnc1	> 11 µM (inactive)
CCOc1cc(C(c2c(C)[nH][nH]c2=O)c2c(C)[nH][nH]c2=O)ccc1O	> 11 µM (inactive)
COc1ccc(NC(=O)Nc2ccc(OCc3ccccc3)cc2)cn1	> 11 µM (inactive)
CC(=O)N(C1=C(Cl)C(=O)c2ccccc2C1=O)C1CCCCC1	> 11 µM (inactive)
